Assay results reported in patent US8802664B2 (Bioproject, priority 2010, dated 2014).

Tests used:
[1] = target: T1, human H4 receptor (Homo sapiens, UniProt Q9H3N8); test: [3H]Histamine binding on membranes of CHO cells stably expressing human H4 receptor
T1 construct: expressed in transfected cells
Outline: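 First, thawed CHO membranes carrying human H4 were diluted to 20 μg protein per well in pH 7.4 Tris/EDTA buffer. Next, incubation was ended by rapid filtration through PEI-treated GF/B filters followed by cold rinses. Finally, retained radioactivity was counted; 10 μM JNJ 7777120 marked nonspecific binding.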

Row | Compound | melting point | Ki or IC50 activity class [1]
1 | CN1CCC(NC(c2cccc(OCCCC(F)(F)F)c2)c2nc3ccccc3[nH]2)CC1 (stereo not drawn) [Example 175, {(1H-benzimidazol-2-yl)[3-(4,4,4-trifluoro-butoxy)phenyl]methyl}(1-methylpiperidin-4-yl)amine] | 94 °C | < 300 nM
2 | Cc1ccc(C(OC2CCN(C)CC2)c2nc3ccccc3[nH]2)cc1 (stereo not drawn) [Example 177, 2-[(1-methylpiperidin-4-yloxy)-p-tolyl-methyl]-1H-benzimidazole] | 102 °C | < 300 nM
3 | CN1CCC(OC(c2ccc(F)cc2)c2nc3ccccc3[nH]2)CC1 (stereo not drawn) [Example 179, 2-[(4-fluorophenyl)(1-methylpiperidin-4-yloxy)methyl]-1H-benzimidazole] | 131 °C | < 300 nM
4 | CN1CCC(OC(c2cccc(-c3ccc4c(c3)OCO4)c2)c2nc3ccccc3[nH]2)CC1 (stereo not drawn) [Example 184, 2-[(3-benzo[1,3]dioxol-5-ylphenyl)(1-methylpiperidin-4-yloxy)methyl]-1H-benzimidazole] | 95 °C | < 300 nM
5 | CN1CCC(OC(c2cccc(C#CCCO)c2)c2nc3ccccc3[nH]2)CC1 (stereo not drawn) [Example 191, 4-{3-[(1H-benzimidazol-2-yl)(1-methylpiperidin-4-yloxy)methyl]phenyl}but-3-yn-1-ol] | 104 to 108 °C | < 300 nM
6 | CN1CCC(OC(c2cccc(-c3cnc(O)nc3)c2)c2nc3ccccc3s2)CC1 (stereo not drawn) [Example 214, 5-{3-[benzothiazol-2-yl(1-methylpiperidin-4-yloxy)methyl]phenyl}pyrimidin-2-ol] | 170 °C | < 300 nM
7 | CN1CCC(OC(c2cccc(-c3cncnc3)c2)c2nc3ccccc3s2)CC1 (stereo not drawn) [Example 216, 2-[(1-methylpiperidin-4-yloxy)(3-pyrimidin-5-yl-phenyl)methyl]benzothiazole] | 85 °C | < 300 nM
8 | C=Cc1cccc(C(OC2CCN(C)CC2)c2nc3ccccc3s2)c1 (stereo not drawn) [Example 218, 2-[(1-methylpiperidin-4-yloxy)(3-vinyl-phenyl)methyl]benzothiazole] | 165 °C | < 30 nM
9 | COc1ccc(-c2cccc(C(NC3CCN(C)CC3)c3nc4ccccc4[nH]3)c2)cc1 (stereo not drawn) [Example 222, [(1H-benzimidazol-2-yl)(4′-methoxy-biphenyl-3-yl)methyl](1-methylpiperidin-4-yl)amine] | 110 °C | < 300 nM
10 | CN1CCC(OC(c2cccc(N=[N+]=[N-])c2)c2nc3ccccc3[nH]2)CC1 (stereo not drawn) [Example 231, 2-[(3-azidophenyl)(1-methylpiperidin-4-yloxy)methyl]-1H-benzimidazole] | 53 °C | < 300 nM
11 | Cc1ccc(C(OC2CCN(C)CC2)c2nc3ccccc3[nH]2)cc1Br (stereo not drawn) [Example 261, 2-[(3-bromo-4-methylphenyl)(1-methylpiperidin-4-yloxy)methyl]-1H-benzimidazole] | 92 °C | < 300 nM
12 | CN1CCC(OC(c2nc3ccccc3[nH]2)c2ccccc2Br)CC1 (stereo not drawn) [Example 262, 2-[(2-bromophenyl)(1-methylpiperidin-4-yloxy)methyl]-1H-benzimidazole] | 213 °C | < 300 nM
13 | CN1CCC(OC(c2cccc(OCCN)c2)c2nc3ccccc3[nH]2)CC1 (stereo not drawn) [Example 291, 2-{3-[(1H-benzimidazol-2-yl)(1-methylpiperidin-4-yloxy)methyl]phenoxy}ethylamine] | 90 °C | < 300 nM
14 | CN1CCC(OC(c2cccc(SCCNC(N)=O)c2)c2nc3ccccc3[nH]2)CC1 (stereo not drawn) [Example 298, (2-{3-[(1H-benzimidazol-2-yl)(1-methylpiperidin-4-yloxy)methyl]phenylsulfanyl}ethyl)urea] | 136 °C | < 1000 nM
15 | CN1CCC(OC(c2ccc3c(c2)OCCO3)c2nc3ccccc3[nH]2)CC1 (stereo not drawn) [Example 300, 2-[(2,3-dihydrobenzo[1,4]dioxin-6-yl)(1-methylpiperidin-4-yloxy)methyl]-1H-benzimidazole] | 203 °C | < 300 nM
16 | CN1CCC(OC(c2cccc(SCCNC(=N)NC(=O)OC(C)(C)C)c2)c2nc3ccccc3s2)CC1 (stereo not drawn) [Example 304, N-tert-butoxycarbonyl-N′-(2-{3-[(benzothiazol-2-yl)(1-methylpiperidin-4-yloxy)methyl]phenylsulfanyl}ethyl)guanidine] | 110 °C | < 30 nM
17 | CN1CCC(OC(c2cccc(OCc3ccccn3)c2)c2nc3ccccc3[nH]2)CC1 (stereo not drawn) [Example 310, 2-{(1-methylpiperidin-4-yloxy)[3-(pyridin-2-ylmethoxy)phenyl]methyl}-1H-benzimidazole] | 77 °C | < 300 nM

Results, then the molecule that gave them:

Row | melting point | Ki or IC50 activity class [1] | Compound
18 | 90 °C | < 30 nM | CN1CCC(OC(c2cccc(-c3ccc(OC(F)(F)F)cc3)c2)c2nc3ccccc3[nH]2)CC1 (stereo not drawn) [Example 182, 2-[(1-methylpiperidin-4-yloxy)(4′-trifluoromethoxybiphenyl-3-yl)methyl]-1H-benzimidazole]
19 | 92 °C | < 300 nM | COc1ccc(-c2cccc(C(OC3CCN(C)CC3)c3nc4ccccc4[nH]3)c2)cc1 (stereo not drawn) [Example 183, 2-[(4′-methoxybiphenyl-3-yl)(1-methylpiperidin-4-yloxy)methyl]-1H-benzimidazole]
20 | 117 to 120 °C | < 300 nM | CN1CCC(OC(c2cccc(C#CCO)c2)c2nc3ccccc3[nH]2)CC1 (stereo not drawn) [Example 190, 3-{3-[(1H-benzimidazol-2-yl)(1-methylpiperidin-4-yloxy)methyl]phenyl}prop-2-yn-1-ol]
21 | 85 °C | < 300 nM | CN1CCC(OC(c2cccc(C#CCCCO)c2)c2nc3ccccc3[nH]2)CC1 (stereo not drawn) [Example 192, 5-{3-[(1H-benzimidazol-2-yl)(1-methylpiperidin-4-yloxy)methyl]phenyl}pent-4-yn-1-ol]
22 | 190 °C | < 300 nM | Cc1ccccc1C(OC1CCN(C)CC1)c1nc2ccccc2[nH]1 (stereo not drawn) [Example 193, 2-[(1-methylpiperidin-4-yloxy)-o-tolyl-methyl]-1H-benzimidazole]
23 | 101 °C | < 300 nM | CN1CCC(OC(c2cccc(C#CCN)c2)c2nc3ccccc3[nH]2)CC1 (stereo not drawn) [Example 194, 3-{3-[(1H-benzimidazol-2-yl)(1-methylpiperidin-4-yloxy)methyl]phenyl}prop-2-ynylamine]
24 | 96.7 °C | < 300 nM | CN1CCC(OC(c2ccccc2)c2nc3cccc(N)c3[nH]2)CC1 (stereo not drawn) [Example 200, 2-[(1-methylpiperidin-4-yloxy)phenyl-methyl]-3H-benzimidazol-4-ylamine]
25 | 122 °C | < 300 nM | CN1CCC(OC(c2ccc(Br)cc2)c2nc3ccccc3[nH]2)CC1 (stereo not drawn) [Example 204, 2-[(4-bromophenyl)(1-methylpiperidin-4-yloxy)methyl]-1H-benzimidazole]
26 | 170.5 °C | < 1000 nM | CN1CCC(OC(c2ccccc2)c2nc3cccc(O)c3[nH]2)CC1 (stereo not drawn) [Example 210, 2-[(1-methylpiperidin-4-yloxy)phenylmethyl]-3H-benzimidazol-4-ol]
27 | 60 °C | < 30 nM | CCCNC(=O)c1cccc(C(OC2CCN(C)CC2)c2nc3ccccc3s2)c1 (stereo not drawn) [Example 220, 3-[benzothiazol-2-yl(1-methylpiperidin-4-yloxy)methyl]-N-propylbenzamide]
28 | 100 °C | < 300 nM | CN1CCC(OC(c2cccc(N)c2)c2nc3ccccc3[nH]2)CC1 (stereo not drawn) [Example 224, 3-[(1H-benzimidazol-2-yl)(1-methylpiperidin-4-yloxy)methyl]phenylamine]
29 | 80 °C | < 1000 nM | CN1CCC(OC(c2cccc(SC(C)(C)CCO)c2)c2nc3ccccc3[nH]2)CC1 (stereo not drawn) [Example 235, 3-{3-[(1H-benzimidazol-2-yl)(1-methylpiperidin-4-yloxy)methyl]phenylsulfanyl}-3-methyl-butan-1-ol]
30 | 97 to 99 °C | < 300 nM | CN1CCC(OC(c2cccc(SCCCO)c2)c2nc3ccccc3[nH]2)CC1 (stereo not drawn) [Example 246, 3-{3-[(1H-benzimidazol-2-yl)(1-methylpiperidin-4-yloxy)methyl]phenylsulfanyl}propan-1-ol]
31 | 120 to 122 °C | < 300 nM | CC(O)CSc1cccc(C(OC2CCN(C)CC2)c2nc3ccccc3[nH]2)c1 (stereo not drawn) [Example 247, 1-{3-[(1H-benzimidazol-2-yl)(1-methylpiperidin-4-yloxy)methyl]phenylsulfanyl}propan-2-ol]
32 | 193 °C | < 1000 nM | CN1CCC(OC(c2nc3ccccc3[nH]2)c2ccccc2OC(F)(F)F)CC1 (stereo not drawn) [Example 251, 2-[(1-methylpiperidin-4-yloxy)(2-trifluoromethoxy-phenyl)methyl]-1H-benzimidazole]
33 | 90 °C | < 30 nM | CN1CCC(OC(c2cccc(-c3ccn[nH]3)c2)c2nc3ccccc3s2)CC1 (stereo not drawn) [Example 260, 2-{(1-methylpiperidin-4-yloxy)[3-(2H-pyrazol-3-yl)phenyl]methyl}benzothiazole]
34 | 76 °C | < 30 nM | CN1CCC(OC(c2cccc(OCCN)c2)c2nc3ccccc3s2)CC1 (stereo not drawn) [Example 271, 2-{3-[benzothiazol-2-yl(1-methylpiperidin-4-yloxy)methyl]phenoxy}ethylamine]
35 | 53 °C | < 1000 nM | CN1CCC(OC(c2ccccc2)c2nc3ccccc3[nH]2)C1 (stereo not drawn) [Example 272, 2-[(1-methylpyrrolidin-3-yloxy)phenyl-methyl]-1H-benzimidazole]
36 | 183 °C | < 1000 nM | Cc1ccc(C(NC2CCN(C)CC2)c2nc3ccccc3[nH]2)cc1 (stereo not drawn) [Example 273, [(1H-benzimidazol-2-yl)-p-tolyl-methyl](1-methylpiperidin-4-yl)amine]
